Measurements reported in PubChem BioAssay (NCI).
Several values for one entry are separate records, joined by “and”; a condition that tells them apart may be missing. Equal values may be shown once.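 Dose response: 5 concentrations. Exposure: 48 h. Format: 96-well plates. Endpoint: linear interpolation; highest concentration if not reached. Here, GI50 denotes the concentration required for 50% inhibition of growth. The concentration for full growth arrest is given as TGI.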

tested on: MDA-MB-468 breast; test: NCI tumour cell line growth inhibition, 48 h

SMILES	GI50	TGI
O=C1Cc2cc(CCn3ccnc3)c(Cl)cc2N1	2.74 µM	11.3 µM
Oc1nc(NCCc2ccccc2)sc1/C=C1\C=Nc2ncccc21	1.51 µM and 2.05 µM	3.6 µM and 6.37 µM
CCCNc1nc(N(C)O)nc(N(C)O)n1	2.75 µM	> 70.7 µM
O=C(CCCn1c2c(sc3ncccc32)c(=O)n2nnc(-c3ccccc3)c12)NCCc1cnc[nH]1	8.06 µM	27.4 µM
CCN1CCN(CCOc2ccc(CNc3ccc4nc(CCC5CCCCC5)[nH]c4c3)cc2)CC1	1.67 µM	4.11 µM
C=C1CC[C@@H]2C(C)(C)[C@@H](O)CC[C@@]2(C)[C@@H]1COc1ccc2ccc(=O)oc2c1	6.36 µM	25.9 µM
Fc1ccc(-c2nc(-c3nc4ccc(Cl)cc4[nH]3)cc3c2[nH]c2ccccc23)cc1	2.43 µM	11.5 µM
COc1cc(CNC(=O)/C=C/C=C/c2ccc3c(c2)OCO3)ccc1OCc1cn(-c2ccc(Cl)c(Cl)c2)nn1	0.788 µM	2.46 µM
c1cncc(CNc2ccccc2-c2nnc(Nc3ccc4c(c3)OCO4)o2)c1	0.153 µM	> 100 µM
O=C1NC(=NCC(CO)c2ccccc2)S/C1=C\c1ccc2ncccc2c1 (centres undefined)	8.8 µM	> 25 µM
CCCCCCN(CCCCCC)CCCNc1nccc2ccccc12	1.34 µM	2.91 µM
CCN1CCC[C@H]1c1cc(O)c2c(c1OC)C[C@H]1C[C@H]3[C@H](N)C(=O)C(C(N)=O)=C(O)[C@@]3(O)C(=O)C1=C2O	0.0446 µM	0.717 µM
CN(C)CC(C(=O)c1ccccc1)c1ccccc1 (centres undefined)	0.95 µM	2.63 µM
CCc1nn2c(C)cc(C)nc2c1Cc1ccc(/C=C/CN2CCN(CCOCCOCCN3CCN(C/C=C/c4ccc(Cc5c(CC)nn6c(C)cc(C)nc56)cc4)CC3)CC2)cc1	1.79 µM	3.81 µM
O=C1NC(=NCc2cccs2)SC1Cc1ccc2ncccc2c1 (centres undefined)	11.8 µM	> 25 µM
C=C1C(=O)O[C@@H]2C[C@@H](C)/C=C\C(=O)[C@](C)(OC(C)=O)C[C@H](OC(=O)/C(C)=C\C)[C@@H]12	1.01 µM	5.08 µM
Cn1cc(-c2csc(-c3c[nH]c4ncccc34)n2)c2cc(Br)cnc21	0.812 µM	56.7 µM
N/C(=N\O)c1ncc(-c2ccc(C(F)(F)F)cc2)c(NC2CCCCCC2)n1	8.27 µM and 3.63 µM	17.9 µM
CC/C(=N\Nc1nc2ccccc2n1C)c1ccccn1	0.0284 µM	0.207 µM

SMILES	GI50	TGI
CCNC(=O)Oc1ccc(/C(=C(/C)c2ccccc2)c2ccc(OCCN3CCCCCC3)cc2)cc1	2.06 µM	5.63 µM
O=C(Nc1cccc(Cl)c1)Nc1cccc(Cl)c1	0.0456 µM	43.6 µM
O=C1C2=C(C(=O)c3c(O)ccc(O)c31)N(c1ccc(N3CCOCC3)nc1)Cc1ccccc1O2	0.217 µM	0.516 µM
O=C(N[C@H](c1ccc(Cl)c(Cl)c1)C1CNC1)c1ccc2cnccc2c1	1.85 µM	10.4 µM
CCCc1cc(=O)oc2c(C(=O)CC(C)C)c(O)c(CC=C(C)C)c(O)c12	3.72 µM	27 µM
CSc1ccc2c(c1)c(CCN)c(C)n2Cc1ccc(Cl)c(Cl)c1	1.78 µM	3.47 µM
Cc1ccc(/C=C(\C#N)n2nnc3cc(Cl)c(Cl)cc32)cc1	2.4 µM	6.65 µM
COC(=O)[C@]12CC[C@@H](C)[C@H](C)[C@@H]1C1=CC[C@@H]3[C@@]4(C)C[C@@H](OC(=O)c5ccco5)[C@H](O)[C@@](C)(CO)[C@@H]4[C@H](O)C[C@@]3(C)[C@]1(C)CC2	2.34 µM	6.54 µM
COc1cc2c(cc1OC)C(CCc1ccc(Cl)cc1)N(C)CC2 (centres undefined)	16.3 µM	38.1 µM
CCOc1ccc(Cc2nccc3cc(OCC)c(OCC)cc23)cc1OCC	2.29 µM	18.3 µM
Cc1cccc(CN(C)c2ccc(CO)c(Cl)c2)c1	0.0572 µM	0.176 µM
N#Cc1ccc(Oc2nccc(-c3c(-c4ccc(F)cc4)ncn3C3CCNCC3)n2)cc1	5.91 µM	> 25 µM
Nc1nc(N)c2cc(CNc3ccc(Cl)c(Cl)c3)ccc2n1	0.903 µM	2.19 µM
C=CCN1C(=O)/C(=c2\sc3n(c2=O)C2C(NN=3)N(CC)C(=O)N2CC)c2ccccc21 (centres undefined)	0.293 µM	3.75 µM
COc1ccc(CN2c3ccccc3Sc3ccccc32)cc1F	0.309 µM	53.4 µM
O=S(=O)(NCCNc1nccc(-c2c(-c3cccc(O)c3)nc3sccn23)n1)c1ccc(F)cc1	2.62 µM	24.2 µM
CC(C)=CC/C=C(/C)[C@H]1CC[C@]2(C)[C@@H]1CC[C@@H]1[C@@]3(C)CCC(=O)NC(C)(C)[C@@H]3CC[C@]12C	16.5 µM	34.2 µM
COc1cc(/C=C/C(=O)C(=Cc2ccc(F)c(F)c2)C(=O)/C=C/c2ccc(O)c(OC)c2)ccc1O	1.7 µM	3.47 µM
